These are literature values, as cited in patent US7596836B2 (priority 2007, dated 2009).

Structures are written as SMILES.

The conditions of data set [1]: in vivo.
The conditions of data set [2]: in vivo. The source holds these as a separate data set.
Data set [3] has as its system HIV. Particulars: clinical trials; response directly related to the dosage given.
The conditions of data set [4]: 250 mg chloroquine phosphate twice daily must be monitored closely.
The test system of data set [5] is Avian Influenza H5N1. The settings on record: patients worldwide, current strain of Avian Influenza H5N1.
For data set [6] the following is noted: reports in Japan, including suicide attempts.
In data set [7] the test system is influenza. The settings on record: dosage of a compound containing 1% to 3% thymol.

With `CC1CCC(C(C)C)C(O)C1` (stereo not shown) [Menthol], the reduction of coughing in data set [1] is reported as 50%.

In the case of `CCN(CC)CCCC(C)Nc1ccnc2cc(Cl)ccc12` (stereo not shown) [chloroquine], the serum half-life in data set [2] is 96 h. Further, the “efficacy against HIV” value in data set [3] is “effective against HIV”. Also, the “toxicity of oral chloroquine” value in data set [4] is “ocular complications and renal toxicity”.

In the case of `CCOC(=O)C1=C[C@@H](OC(CC)CC)[C@H](NC(C)=O)[C@@H](N)C1` [oseltamivir], the “mortality of oseltamivir treated patients” value in data set [5] was roughly 50%. Also, the reported side effects entry in data set [6] is “serious neuropsychiatric symptoms”.

Consider `Cc1ccc(C(C)C)c(O)c1` [thymol, Thymol], for which the effect against influenza entry in data set [7] was “effective at fighting influenza”.
